According to ChEMBL document CHEMBL4043272, “Synthesis and in vitro biological evaluation of new pyrimidines as glucagon-like peptide-1 receptor agonists” (Bioorg Med Chem Lett, 2017):
The source made the active and inactive calls. The rule behind the calls is not given here.

Columns and labels:
Type in all cases: cell-based
[1] = biological target: T1, Glucagon-like peptide 1 receptor (Mus musculus) (UniProt O35659); assay: Agonist activity at GLP1 receptor in mouse BetaTC6 cells assessed as increase in glucose-dependent insulin secretion at 10^-15 M after 120 mins by sandwich ELISA
T1 sequence (whole entry): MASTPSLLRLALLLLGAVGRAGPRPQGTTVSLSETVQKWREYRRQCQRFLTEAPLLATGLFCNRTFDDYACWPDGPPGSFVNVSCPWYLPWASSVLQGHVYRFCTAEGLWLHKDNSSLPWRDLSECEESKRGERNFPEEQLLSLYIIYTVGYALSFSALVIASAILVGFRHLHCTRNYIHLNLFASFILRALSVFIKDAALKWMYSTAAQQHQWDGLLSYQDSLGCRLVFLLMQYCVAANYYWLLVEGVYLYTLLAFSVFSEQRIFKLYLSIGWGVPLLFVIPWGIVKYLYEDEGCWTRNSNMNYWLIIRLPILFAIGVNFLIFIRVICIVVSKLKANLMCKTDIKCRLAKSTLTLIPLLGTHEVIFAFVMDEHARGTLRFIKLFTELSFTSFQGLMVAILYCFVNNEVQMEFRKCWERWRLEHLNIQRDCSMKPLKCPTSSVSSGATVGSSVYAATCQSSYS

[2] = biological target: T1, Glucagon-like peptide 1 receptor (Mus musculus); assay: Agonist activity at GLP1 receptor in mouse BetaTC6 cells assessed as increase in insulin secretion at 10^-15 to 10^-12 M after 120 mins by sandwich ELISA
[3] = biological target: T1, Glucagon-like peptide 1 receptor (Mus musculus); assay: Agonist activity at GLP1 receptor in mouse BetaTC6 cells assessed as increase in glucose-dependent insulin secretion at 10^-15 to 10^-9 M after 120 mins by sandwich ELISA
[4] = biological target: T1, Glucagon-like peptide 1 receptor (Mus musculus); assay: Agonist activity at GLP1 receptor in mouse BetaTC6 cells assessed as increase in glucose-dependent insulin secretion after 120 mins by sandwich ELISA
[5] = biological target: T1, Glucagon-like peptide 1 receptor (Mus musculus); assay: Agonist activity at GLP1 receptor in mouse BetaTC6 cells assessed as increase in insulin secretion at 10^-15 to 10^-9 M after 120 mins by sandwich ELISA

SMILES | Activity [1] | Activity [2] | Activity [3] | Activity [4] | Activity [5]
c1ccc(CNc2ccnc(NC3CCCCCC3)n2)cc1 | Active | Active |  |  | 
O=C(Nc1nccc(N/N=C/c2ccc(F)cc2)n1)NC1CCCC1 |  | Active | inactive |  | 
Cc1ccc(S(=O)(=O)NC(=O)Nc2ccnc(N)n2)cc1 |  |  |  | inactive | Active
